# Results reported in patent US12691088B2, “Reactivation of mTOR in acute kidney injury (AKI)” (The Trustees of Columbia University in the City of New York, priority 2021, dated 2026).
# Where two headings read alike, the source gives them in different places.
# Experiments:
# mTORC1 [1] = conditions: cited from earlier work; for mTORC1 activation (phosphorylation of S6K1 at threonine 389): mouse embryonic fibroblast (MEF) cells
# [2] = system: ischemia reperfusion (I/R)-induced iAKI; assay: functional screening of amino acids in ischemia reperfusion (I/R)-induced iAKI; format: in vivo, wild type C57B/L6 mice; conditions: 48 hours reperfusion after 25 min ischemia, 75 mg/kg i.p. 1 hour prior and every 8 hours afterwards, vs vehicle; for BUN / sCr: n=5-6
# Protocol: FIGS. 4A-F show functional screening of amino acids for the regulation of ischemia reperfusion (I/R)-induced iAKI. Ischemia was incurred by clamping renal artery of the left kidney for 25 min while the right kidney was removed prior to clamping. Renal functions were analyzed by quantitating serum creatinine (sCr) and blood urea nitrogen (BUN) after the reperfusion for 48 hours. FIGS. 4[…]) or L-valine (Val; 75 mg/kg) were intraperitoneally administered into wild type C57B/L6 mice 1 hour prior to the induction of ischemic and every 8 hours afterwards.
# mTORC1 [3] = conditions: human embryonic kidney 293A (HEK293A) cells; cited from earlier work
# [4] = system: rhabdomyolysis (Rh)-induced iAKI; assay: functional screening of amino acids in rhabdomyolysis (Rh)-induced iAKI (50% glycerol i.m.); format: in vivo, wild type C57BL6 mice
# Protocol: FIGS. 2A-L show a functional screening of amino acids for the regulation of rhabdomyolysis (Rh)-induced iAKI. Rh was incurred by intramuscularly injecting 50% glycerol (6 ml/kg), and renal functions were analyzed by quantitating serum creatinine (sCr) and blood urea nitrogen (BUN) after 24, 48 and 168 hours. […] or glutamine (75 mg/kg) were intraperitoneally administered into wild type C57BL6 mice at 1 hour prior to injury incurrence. It was observed that sCr and BUN were reduced at 24 hours (FIGS. 2A, B) in isoleucine-treated rhabdomyolysis mice, but were increased at 48 hours in leucine-treated mice (FIGS. 2C, D) when compared with vehicle (Veh)-treated counterparts (n=7). […] FIG. 2[…], or histidine were intraperitoneally administered into wild type C57BL6 mice at 1 hour prior to injury incurrence and then every 8 hours thereafter. It was observed that threonine reduces sCr and BUN at 24 h and histidine reduces sCr and BUN at 24 h and 48 h when compared with Veh Rh mice. Therefore, threonine and histidine protected from Rh-induced iAKI. […] FIGS. 3A-F show a functional screening of […] or L-valine for the regulation of rhabdomyolysis (Rh)-induced iAKI. Rh was incurred by intramuscularly injecting 50% glycerol (6 ml/kg), and renal functions were analyzed by quantitating serum creatinine (sCr) and blood urea nitrogen (BUN) after 24, 48 and 168 hours. FIGS. 3[…] or L-valine (75 mg/kg) were intraperitoneally administered into wild type C57BL6 mice at 1 hour prior to injury incurrence and then every 8 hours for a total of 5 doses.
# [5] = system: ischemic acute kidney injury (AKI); assay: ischemia/reperfusion (IR) ischemic AKI in nephron-specific Spns1 knockout mice, L-leucine pretreatment; format: in vivo; conditions: Spns1f/f/Six2-Cre IR AKI mice; 75 mg/kg i.p. 1 hour prior; 25 min ischemia, 48 hours reperfusion; vs vehicle; n=4-7
# Protocol: (§1) L-leucine (75 mg/kg) was intraperitoneally administered into wild type (WT) and nephron-specific Spns1 knockout (Spns1f/f/Six2-Cre) mice 1 hour prior to initiating ischemic AKI. The left kidney was then removed. Ischemia/reperfusion (IR) was performed by clamping the renal artery of the right kidney for 25 min of ischemia followed by 48 hours of reperfusion.
# [6] = system: ischemic acute kidney injury (AKI); assay: ischemia/reperfusion (IR) ischemic AKI in wild type mice, L-leucine pretreatment; format: in vivo; conditions: WT IR AKI mice; 75 mg/kg i.p. 1 hour prior; 25 min ischemia, 48 hours reperfusion; vs vehicle; n=4-7
# Protocol: as §1
# [7] = 24 h post Rh, i.p. 1 hour prior to injury and every 8 hours thereafter, vs Veh Rh mice (FIG. 2G)
# [8] = 24 h post Rh, i.p. 1 hour prior to injury and every 8 hours thereafter, vs Veh Rh mice (FIG. 2H)
# [9] = 24 hours post Rh, 75 mg/kg i.p. 1 hour prior to injury then every 8 hours, total 5 doses, vs vehicle, n=7 (FIG. 3A)
# [10] = 24 hours post Rh, 75 mg/kg i.p. 1 hour prior to injury then every 8 hours, total 5 doses, vs vehicle, n=7 (FIG. 3B)
smiles,measurement,setting,value
N[C@@H](CS)C(=O)O [Cysteine],mTORC1 activation (phosphorylation of S6K1 at threonine 389),mTORC1 [1],activates
N[C@@H](CC(=O)O)C(=O)O [L-aspartic acid],BUN,[2],reduced
same,sCr,[2],reduced
CSCC[C@H](N)C(=O)O [L-methionine],mTORC1 activation (phosphorylation of S6K1 at threonine 389),mTORC1 [3],activate
same,mTORC1 activation (phosphorylation of S6K1 at threonine 389),mTORC1 [1],activate
same,impacts on I/R-AKI (sCr and BUN),[2],"Neither L-serine (FIGS. 4A, B), L-alanine (FIGS. 4A, B) nor L-methionine (FIGS. 4C, D) had significant impacts"
C[C@@H](O)[C@H](N)C(=O)O [L-threonine],mTORC1 activation (phosphorylation of S6K1 at threonine 389),mTORC1 [3],activate
same,mTORC1 activation (phosphorylation of S6K1 at threonine 389),mTORC1 [1],activate
same,BUN,[2],reduced
same,sCr,[2],reduced
same,sCr,[4]; [7],reduces
same,BUN,[4]; [8],reduces
"C[C@H]1CCC/C=C/[C@@H]2C[C@H](O)C[C@H]2[C@H](O)/C=C/C(=O)O1 [brefeldin A, reference compound]",lysosomal localization of mTORC1 induced by glutamine and asparagine,mTORC1 [1]; MEFs,impairs
same,glutamine and asparagine-induced mTORC1 activation,mTORC1 [1]; wild type and Rag depleted MEFs,inhibits
N[C@@H](Cc1c[nH]cn1)C(=O)O [L-histidine],mTORC1 activation (phosphorylation of S6K1 at threonine 389),mTORC1 [3],activate
same,mTORC1 activation (phosphorylation of S6K1 at threonine 389),mTORC1 [1],activate
same,BUN,[2],reduced
same,sCr,[2],reduced
same,sCr,[4]; [7],reduces
same,BUN,[4]; [8],reduces
same,sCr,"[4]; 48 h post Rh, i.p. 1 hour prior to injury and every 8 hours thereafter, vs Veh Rh mice (FIG. 2I)",reduces
same,BUN,"[4]; 48 h post Rh, i.p. 1 hour prior to injury and every 8 hours thereafter, vs Veh Rh mice (FIG. 2J)",reduces
CC(C)[C@H](N)C(=O)O [L-valine],mTORC1 activation (phosphorylation of S6K1 at threonine 389),mTORC1 [3],activate
same,mTORC1 activation (phosphorylation of S6K1 at threonine 389),mTORC1 [1],activate
same,BUN,[2],elevated
same,sCr,[2],elevated
same,sCr,[4]; [9],reduced
same,BUN,[4]; [10],reduced
same,sCr,"[4]; 48 hours post Rh, 75 mg/kg i.p. 1 hour prior to injury then every 8 hours, total 5 doses, vs vehicle, n=7 (FIG. 3C)",reduced
same,BUN,"[4]; 48 hours post Rh, 75 mg/kg i.p. 1 hour prior to injury then every 8 hours, total 5 doses, vs vehicle, n=7 (FIG. 3D)",reduced
NC(=O)CC[C@H](N)C(=O)O [L-glutamine],mTORC1 activation (phosphorylation of S6K1 at threonine 389),mTORC1 [3],activate
same,mTORC1 activation (phosphorylation of S6K1 at threonine 389),mTORC1 [1],activate
same,BUN,[2],reduced
same,sCr,[2],reduced
same,effects on Rh-induced AKI (sCr and BUN),"[4]; 24, 48 and 168 hours post Rh, 75 mg/kg i.p. 1 hour prior to injury, vs vehicle (FIGS. 2A-F)",no significant effects
NC(=O)C[C@H](N)C(=O)O [asparagine],mTORC1 activation (phosphorylation of S6K1 at threonine 389),mTORC1 [3],activate
same,mTORC1 activation (phosphorylation of S6K1 at threonine 389),mTORC1 [1],activate
N[C@@H](CO)C(=O)O [L-serine],mTORC1 activation (phosphorylation of S6K1 at threonine 389),mTORC1 [3],activate
same,mTORC1 activation (phosphorylation of S6K1 at threonine 389),mTORC1 [1],activate
same,impacts on I/R-AKI (sCr and BUN),[2],"Neither L-serine (FIGS. 4A, B), L-alanine (FIGS. 4A, B) nor L-methionine (FIGS. 4C, D) had significant impacts"
N=C(N)NCCC[C@H](N)C(=O)O [L-arginine],mTORC1 activation (phosphorylation of S6K1 at threonine 389),mTORC1 [3],activate
same,mTORC1 activation (phosphorylation of S6K1 at threonine 389),mTORC1 [1],activate
same,BUN,[2],elevated
same,sCr,[2],elevated
same,sCr,[4]; [9],reduced
same,BUN,[4]; [10],reduced
C[C@H](N)C(=O)O [L-alanine],mTORC1 activation (phosphorylation of S6K1 at threonine 389),mTORC1 [3],activate
same,mTORC1 activation (phosphorylation of S6K1 at threonine 389),mTORC1 [1],activate
same,impacts on I/R-AKI (sCr and BUN),[2],"Neither L-serine (FIGS. 4A, B), L-alanine (FIGS. 4A, B) nor L-methionine (FIGS. 4C, D) had significant impacts"
CC[C@H](C)[C@H](N)C(=O)O [L-isoleucine],BUN,[2],reduced
same,sCr,[2],reduced
same,sCr,"[4]; 24 hours post Rh, 75 mg/kg i.p. 1 hour prior to injury, vs vehicle, n=7 (FIG. 2A)",reduced
same,BUN,"[4]; 24 hours post Rh, 75 mg/kg i.p. 1 hour prior to injury, vs vehicle, n=7 (FIG. 2B)",reduced
CC(C)C[C@H](N)C(=O)O [L-leucine],mTORC1 activation (phosphorylation of S6K1 at threonine 389),mTORC1 [3],activate
same,Serum creatinine (sCr),[5],markedly reduced
same,blood urea nitrogen (BUN),[5],markedly reduced
same,mTORC1 activation (phosphorylation of S6K1 at threonine 389),mTORC1 [1],activate
same,Serum creatinine (sCr),[6],markedly reduced
same,blood urea nitrogen (BUN),[6],markedly reduced
same,BUN,[2],reduced
same,sCr,[2],reduced
same,sCr,"[4]; 48 hours post Rh, 75 mg/kg i.p. 1 hour prior to injury, vs vehicle, n=7 (FIG. 2C)",increased
same,BUN,"[4]; 48 hours post Rh, 75 mg/kg i.p. 1 hour prior to injury, vs vehicle, n=7 (FIG. 2D)",increased
